Legend:
Type in all cases: in vivo
wheat variety Ritmo [1] = assay: Plot trial in Germany: green leaf area by visual scoring; conditions: for green leaf area of the flag leaf / green leaf area of the second-from-top leaf (F-1) / green leaf area of the third-from-top leaf (F-2): sprays at BBCH 39 and 59
Method in brief: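 Field plot trial in Germany, wheat variety Ritmo, bixafen products sprayed sequentially at BBCH 39 and 59 at 400 l water/ha, 5 repetitions. Green leaf area duration followed by regular visual scoring of green leaf fraction.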

[2] = test system: infection-free wheat plants of the cultivar Passat; assay: Glasshouse trial: temperature of ears and leaves as measure of transpiration activity
Method: (§1) In a glasshouse trial under controlled conditions, the effect of bixafen was investigated on the physiology, morphology and abiotic stress tolerance of infection-free wheat plants of the cultivar […] plants were grown in 10-litre containers over a period of 4 months. The substrate used was standard earth type ED 73 (Fröndenberg, Germany)+C-Horizont+Sand (4:2:1). The supply of nutrient to the plants took place by feeding with a 0.2% strength Flory 2 liquid fertilizer solution (from Euflor, Munich) once every two weeks. The plants were supplied with water as required. In each component of the trial, 10 repetitions were carried out.

wheat variety Ritmo [3] = assay: Plot trial: yield components; conditions: sprays at BBCH 39 and 59
[4] = test system: infection-free wheat plants of the cultivar Passat; assay: Glasshouse trial: gas exchange activity of wheat ears; conditions: development stage BBCH 75
Method: as §1

[5] = test system: infection-free wheat plants of the cultivar Passat; assay: Glasshouse trial: size of the flag leaf
Method: (§2) In a glasshouse trial under controlled conditions, the effect of bixafen was investigated on the physiology, morphology and abiotic stress tolerance of infection-free wheat plants of the cultivar […] plants were grown in 10-litre containers over a period of 4 months. The substrate used was standard earth type ED 73 (Fröndenberg, Germany)+C-Horizont+Sand (4:2:1). The supply of nutrient to the plants took place by feeding with a 0.2% strength Flory 2 liquid fertilizer solution (from Euflor, Munich) once every two weeks. The plants were supplied with water as required. In each component of the trial, 10 repetitions were carried out. To prevent infestation with powdery mildew, Proquinazid (Talius® was applied once. The incidence of aphids and spider mites was avoided by treatments with Karate®, Bulldock® and Sumicidin®. The products under test were applied to the plants, in the form of sequential spray sequences (BBCH 39 and 59). The spray volume was 300 l of water per hectare. [table] Morphological parameters measured, additionally, were the length and width, i.e. the size of the flag leaf. This was greatest with the succinate dehydrogenase (SDH) inhibitor bixafen, in comparison to the other comparison fungicides.

[6] = test system: infection-free wheat plants of the cultivar Passat; assay: Glasshouse trial: time of heading (ear emergence); design: time of heading of wheat (ears emerged): unit not given here
Method: as §1

wheat = assay: Effect on the number of kernels/ear; conditions: 1st. trial
[7] = test system: infection-free wheat plants of the cultivar Passat; assay: Glasshouse trial: green leaf area by visual scoring; conditions: for green leaf area of the flag leaf (F) / green leaf area of the second-from-top leaf (F-1) / green leaf area of the third-from-top leaf (F-2): glasshouse
Method: as §2, with “The duration” for “Morphological parameters measured, additionally, were the length and width, i.e. the size”, “green coloration of the leaf area” for “flag leaf. This”, “captured on” for “greatest with”, “basis of regular visual scoring of” for “succinate dehydrogenase (SDH) inhibitor bixafen, in comparison to”, “fraction of the green leaf area.” for “other comparison fungicides.”

[8] = 7 days after second fungicide application
[9] = 14 days after second fungicide application
[10] = 21 days after second fungicide application
[11] = 28 days after second fungicide application
[12] = 35 days after second fungicide application
[13] = 42 days after second fungicide application
[14] = glasshouse trial, statement in words
[15] = 68 days after second fungicide application (so in the source)
[16] = 75 days after second fungicide application (so in the source)
[17] = 82 days after second fungicide application (so in the source)
[18] = 89 days after second fungicide application (so in the source)
[19] = 96 days after second fungicide application (so in the source)
[20] = 103 days after second fungicide application (so in the source)
[21] = 110 days after second fungicide application (so in the source)
[22] = 117 days after second fungicide application (so in the source)

With Cn1cc(C(=O)Nc2ccc(F)cc2-c2ccc(Cl)c(Cl)c2)c(C(F)F)n1 [Bixafen, N-(3′,4′-dichloro-5-fluoro-1,1′-biphenyl-2-yl)-3-(difluoromethyl)-1-methyl-1H-pyrazole-4-carboxamide] as the molecule, how does the “green leaf area of the flag leaf” value (wheat variety Ritmo [1]; [8]) read?
The value was 98.9 % leaf area.

And the “green leaf area of the second-from-top leaf (F-1)” value (“green leaf area … (F-1)” for short) (wheat variety Ritmo [1]; [8])?
The value was 98.4 % leaf area.

What about the “green leaf area of the third-from-top leaf (F-2)” value (“green leaf area … (F-2)” below) (wheat variety Ritmo [1]; [8]) of the same molecule?
Its value is 96.4 % leaf area.

What about the “green leaf area of the flag leaf” value (wheat variety Ritmo [1]; [9]) of the same molecule?
Its value is 98.7 % leaf area.

And the “green leaf area … (F-1)” value (wheat variety Ritmo [1]; [9])?
The value was 98.3 % leaf area.

What about the “green leaf area … (F-2)” value (wheat variety Ritmo [1]; [9]) of the same molecule?
The value was 96.3 % leaf area.

And the “green leaf area of the flag leaf” value (wheat variety Ritmo [1]; [10])?
Its value is 98.8 % leaf area.

What about the “green leaf area … (F-1)” value (wheat variety Ritmo [1]; [10]) of the same molecule?
The value was 98.5 % leaf area.

And the “green leaf area … (F-2)” value (wheat variety Ritmo [1]; [10])?
Its value is 94.5 % leaf area.

And the “green leaf area of the flag leaf” value (wheat variety Ritmo [1]; [11])?
The value was 96.7 % leaf area.

And the “green leaf area … (F-1)” value (wheat variety Ritmo [1]; [11])?
Its value is 94.8 % leaf area.

And the “green leaf area … (F-2)” value (wheat variety Ritmo [1]; [11])?
The value was 91.8 % leaf area.

What about the “green leaf area of the flag leaf” value (wheat variety Ritmo [1]; [12]) of the same molecule?
The value was 73.0 % leaf area.

What about the “green leaf area … (F-1)” value (wheat variety Ritmo [1]; [12]) of the same molecule?
Its value is 60.0 % leaf area.

What about the “green leaf area … (F-2)” value (wheat variety Ritmo [1]; [12]) of the same molecule?
The value was 37.5 % leaf area.

And the “green leaf area of the flag leaf” value (wheat variety Ritmo [1]; [13])?
Its value is 26.7 % leaf area.

What about the “green leaf area … (F-1)” value (wheat variety Ritmo [1]; [13]) of the same molecule?
The value was 9.2 % leaf area.

And the “green leaf area … (F-2)” value (wheat variety Ritmo [1]; [13])?
The value was 3.4 % leaf area.

And the “green leaf area … (F-1)” value (wheat variety Ritmo [1]; 49 days after second fungicide application)?
Its value is 0 % leaf area.

What about the “effect on the duration of the green leaf area of the wheat plant” value (wheat variety Ritmo [1]; plot trial, statement in words) of the same molecule?
The value was “pronounced effect”.

What about the “Temperature (as a measure of the transpiration activity)” value (shortened to “Temperature”) ([2]; BBCH 75, ear) of the same molecule?
The value was 22.3 °C.

What about the “Temperature” value ([2]; BBCH 75, leaf) of the same molecule?
The value was 22.1 °C.

And the “Temperature” value ([2]; BBCH 80, ear)?
The value was 18.2 °C.

And the “Temperature” value ([2]; BBCH 80, leaf)?
Its value is 16.4 °C.

What about the “Temperature” value ([2]; BBCH 85, ear) of the same molecule?
The value was 24.5 °C.

What about the “Temperature” value ([2]; BBCH 85, leaf) of the same molecule?
Its value is 23.3 °C.

And the “Temperature” value ([2]; BBCH 90, ear)?
The value was 24.1 °C.

What about the “Temperature” value ([2]; BBCH 90, lear (so in the source)) of the same molecule?
The value was 22.3 °C.

And the “Ears/m^2” value (wheat variety Ritmo [3])?
Its value is 417.

And the “Harvest Index” value (wheat variety Ritmo [3])?
Its value is 58.5.

And the Straw (wheat variety Ritmo [3])?
Its Straw is 590 g m^−2.

And the “TKM (thousand-kernel mass)” value (wheat variety Ritmo [3])?
The value was 47.7 g.

And the Yield (wheat variety Ritmo [3])?
The Yield was 8.5 t ha^−1.

And the Photosynthesis (gas exchange activity of wheat ears) [4]?
Its Photosynthesis (gas exchange activity of wheat ears) is -5.94 CO2 per ear.

What about the Respiration (gas exchange activity of wheat ears) [4] of the same molecule?
Its Respiration (gas exchange activity of wheat ears) is 6.12 CO2 per ear.

What about the “Length of the flag leaf” value ([5]; at BBCH 83-85) of the same molecule?
Its value is 28.1 cm.

What about the “Width of the flag leaf” value ([5]; at BBCH 83-85) of the same molecule?
The value was 1.7 cm.

What about the “Area of the flag leaf” value ([5]; at BBCH 83-85, calculated using the formula A = 0.67 × length × width) of the same molecule?
The value was 32.01 cm^2.

What about the “Area [rel.] of the flag leaf” value ([5]; at BBCH 83-85, untreated = 100) of the same molecule?
Its value is 146 rel.

What about the “size (length and width) of the flag leaf compared with the other comparison fungicides” value [5, 14] of the same molecule?
Its value is “greatest”.

And the “time of heading of wheat (ears emerged)” value ([6]; 45 days after sowing)?
The value was 1.8.

And the “time of heading of wheat (ears emerged)” value ([6]; 50 days after sowing)?
The value was 15.5.

What about the “time of heading of wheat (ears emerged)” value ([6]; 55 days after sowing) of the same molecule?
Its value is 42.2.

What about the “time of heading of wheat (ears emerged)” value ([6]; 60 days after sowing) of the same molecule?
Its value is 57.0.

What about the “time of heading of wheat (ears emerged)” value ([6]; 65 days after sowing) of the same molecule?
The value was 78.0.

And the “time of heading of wheat (ears emerged)” value ([6]; 70 days after sowing)?
The value was 88.7.

And the “time of heading of wheat (ears emerged)” value ([6]; 75 days after sowing)?
Its value is 93.5.

And the “time of heading of wheat (ears emerged)” value ([6]; 80 days after sowing)?
The value was 96.7.

And the “time of heading of wheat (ears emerged)” value ([6]; 85 days after sowing)?
Its value is 98.5.

What about the “uniformity of heading (ear emergence)” value [6, 14] of the same molecule?
The value was “the heading is more uniform”.

And the Kernels/ear (wheat; applied at BBCH 33 + 59, twice 125 g a.i.)?
The Kernels/ear was 41.7.

And the Kernels/ear (wheat; applied at BBCH 39 (bixafen 125 g a.i.; bixafen + prothioconazole 75 + 150 g a.i.))?
Its Kernels/ear is 42.6.

And the “green leaf area of the flag leaf (F)” value [7, 15]?
The value was 100 % leaf area.

What about the “green leaf area … (F-1)” value [7, 15] of the same molecule?
Its value is 100 % leaf area.

And the “green leaf area … (F-2)” value [7, 15]?
The value was 100 % leaf area.

What about the “green leaf area of the flag leaf (F)” value [7, 16] of the same molecule?
Its value is 100 % leaf area.

What about the “green leaf area … (F-1)” value [7, 16] of the same molecule?
Its value is 100 % leaf area.

And the “green leaf area … (F-2)” value [7, 16]?
Its value is 95 % leaf area.

What about the “green leaf area of the flag leaf (F)” value [7, 17] of the same molecule?
Its value is 100 % leaf area.

What about the “green leaf area … (F-1)” value [7, 17] of the same molecule?
The value was 95 % leaf area.

What about the “green leaf area … (F-2)” value [7, 17] of the same molecule?
The value was 80 % leaf area.

What about the “green leaf area of the flag leaf (F)” value [7, 18] of the same molecule?
Its value is 95 % leaf area.

And the “green leaf area … (F-1)” value [7, 18]?
Its value is 85 % leaf area.

And the “green leaf area … (F-2)” value [7, 18]?
The value was 52 % leaf area.

And the “green leaf area of the flag leaf (F)” value [7, 19]?
The value was 88 % leaf area.

What about the “green leaf area … (F-1)” value [7, 19] of the same molecule?
The value was 57 % leaf area.

And the “green leaf area … (F-2)” value [7, 19]?
Its value is 29 % leaf area.

What about the “green leaf area of the flag leaf (F)” value [7, 20] of the same molecule?
Its value is 65 % leaf area.

And the “green leaf area … (F-1)” value [7, 20]?
Its value is 33 % leaf area.

And the “green leaf area … (F-2)” value [7, 20]?
The value was 15 % leaf area.

And the “green leaf area of the flag leaf (F)” value [7, 21]?
Its value is 38 % leaf area.

And the “green leaf area … (F-1)” value [7, 21]?
Its value is 20 % leaf area.

And the “green leaf area … (F-2)” value [7, 21]?
The value was 6 % leaf area.

And the “green leaf area of the flag leaf (F)” value [7, 22]?
The value was 15 % leaf area.

And the “green leaf area … (F-1)” value [7, 22]?
The value was 5 % leaf area.

And the “green leaf area … (F-2)” value [7, 22]?
The value was 0 % leaf area.

And the “effect on the duration of the green leaf area of the wheat plant” value [7, 14]?
The value was “pronounced effect”.

From patent US20110196000A1, “Use of succinate dehydrogenase (SDH) inhibitors in the treatment of plant species from the family of the true grasses” (Bayer CropScience AG, priority 2010, published 2011)
